Laboratory results taken from patent US20250092039A1, “GLUTARIMIDE-CONTAINING PAN-KRAS-MUTANT DEGRADER COMPOUNDS AND USES THEREOF” (Tiger Biotherapeutics Inc., priority 2022, published 2025).
Read-outs that look alike come from different tables or passages of the source.

Tests used:
[1] = system: SW620 cells; assay: 3D cell growth inhibition of SW620 cells carrying endogenous KRAS G12V mutation (CellTiter-Glo 3D, GI50); assay type: cell-based; settings: Homo sapiens, SW-620, 144 h, read-out: SW620 3D cell growth GI50
In short: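 SW620 cells (endogenous KRAS G12V) grown in 3D were dosed next day with compound from DMSO stocks at various concentrations, then incubated 6 days at 37° C.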

[2] = target: KRAS-G12V/RAF1 (Homo sapiens (Human), UniProt P01116, G12V); assay: KRAS/RAF1 binding inhibition assay (AlphaScreen)
Chain of KRAS-G12V/RAF1 (P01116-2 other isoform, or with tags, fused parts or gaps G12V): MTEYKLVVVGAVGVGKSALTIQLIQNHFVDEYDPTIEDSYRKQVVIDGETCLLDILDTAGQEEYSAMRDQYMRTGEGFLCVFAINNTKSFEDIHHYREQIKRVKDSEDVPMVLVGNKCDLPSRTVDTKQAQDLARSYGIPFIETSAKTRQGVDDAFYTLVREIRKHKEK
In short: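 Binding of GppNHp-loaded KRAS G12V to the RAF1 RBD was measured by AlphaScreen with test compound present in 2% DMSO (final), 60 min incubation at 4° C. Signals were converted to % inhibition versus DMSO, and IC50 was obtained by variable-slope nonlinear regression.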

[3] = target: KRAS G12V (Homo sapiens (Human), UniProt P01116, G12V); assay: KRAS G12V degradation in SW620 cells (Western blot, DC50); assay type: cell-based; settings: 24 hours
Chain of KRAS G12V (P01116-2 other isoform, or with tags, fused parts or gaps G12V): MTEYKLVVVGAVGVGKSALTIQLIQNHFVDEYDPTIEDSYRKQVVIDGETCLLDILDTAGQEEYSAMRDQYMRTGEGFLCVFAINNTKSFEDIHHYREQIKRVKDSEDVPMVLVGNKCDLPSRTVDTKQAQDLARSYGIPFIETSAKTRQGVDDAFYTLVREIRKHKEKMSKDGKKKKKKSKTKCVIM
In short: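 SW620 cells (homozygous KRAS G12V) were treated with compound for 24 hours at 37° C. KRAS in lysates was measured by Western blot with fluorescent secondary antibodies and expressed relative to DMSO vehicle (100%). DC50 came from a four-parameter variable-slope dose-response fit.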

SMILES	GI50 ([1]; SW620 cells, 6 days)	IC50 [2]	DC50 [3]	GI50 [1]
CCc1c(F)ccc2cc(O)cc(-c3ncc4c(N5C[C@@H]6C[C@H](C5)[C@H](O)C6)nc(OCC5(CN6CCC7(CC6)CC(CN6CCN(c8ccc9c(c8)CN([C@H]8CCC(=O)NC8=O)C9=O)CC6)C7)CC5)nc4c3F)c12 [Compound 90, (S)-3-(5-(4-((7-((1-(((7-(8-ethyl-7-fluoro-3-hydroxynaphthalen-1-yl)-8-fluoro-4-((IR,5R,6R)-6-hydroxy-3-azabicyclo[3.2.1]octan-3-yl)pyrido[4,3-d]pyrimidin-2-yl)oxy)methyl)cyclopropyl)methyl)-7-azaspiro[3.5]nonan-2-yl)methyl)piperazin-1-yl)-1-oxoisoindolin-2-yl)piperidine-2,6-dione]	< 10 nM	> 200 nM	1 to 10 nM	–
CCc1cccc2cc(O)cc(-c3ncc4c(N5CCC[C@@](C)(O)C5)nc(OCC5(CN6CCC7(CC6)CC(CN6CCN(c8ccc9c(c8)C(=O)N(C8CCC(=O)NC8=O)C9=O)CC6)C7)CC5)nc4c3F)c12 (stereo partly drawn) [Compound 32, 2-(2,6-dioxopiperidin-3-yl)-5-(4-((7-((1-(((7-(8-ethyl-3-hydroxynaphthalen-1-yl)-8-fluoro-4-((R)-3-hydroxy-3-methylpiperidin-1-yl)pyrido[4,3-d]pyrimidin-2-yl)oxy)methyl)cyclopropyl)methyl)-7-azaspiro[3.5]nonan-2-yl)methyl)piperazin-1-yl)isoindoline-1,3-dione]	< 10 nM	20 to 200 nM	1 to 10 nM	–
CCc1c(F)ccc2cc(O)cc(-c3ncc4c(N5CCOCC(C)(O)C5)nc(OCC5(CN6CCC7(CC6)CC(CN6CCN(c8ccc9c(c8)CN([C@H]8CCC(=O)NC8=O)C9=O)CC6)C7)CC5)nc4c3F)c12 (mixture of isomers) [Compound 91, (3S)-3-(5-(4-((7-((1-(((7-(8-ethyl-7-fluoro-3-hydroxynaphthalen-1-yl)-8-fluoro-4-(6-hydroxy-6-methyl-1,4-oxazepan-4-yl)pyrido[4,3-d]pyrimidin-2-yl)oxy)methyl)cyclopropyl)methyl)-7-azaspiro[3.5]nonan-2-yl)methyl)piperazin-1-yl)-1-oxoisoindolin-2-yl)piperidine-2,6-dione]	–	20 to 200 nM	1 to 10 nM	< 10 nM
CCc1c(F)ccc2cc(O)cc(-c3ncc4c(N5CCCC(C)(O)C5)nc(OCC5(CN6CCC7(CC6)CCC(C)(N6CCN(c8ccc9c(c8)CN(C8CCC(=O)NC8=O)C9=O)CC6)CC7)CC5)nc4c3F)c12 (stereo in doubt) [Compound 167, 3-[5-[4-[3-[[1-[[7-(8-ethyl-7-fluoro-3-hydroxy-1-naphthyl)-8-fluoro-4-[(3R)-3-hydroxy-3-methyl-1-piperidyl]pyrido[4,3-d]pyrimidin-2-yl]oxymethyl]cyclopropyl]methyl]-9-methyl-3-azaspiro[5.5]undecan-9-yl]piperazin-1-yl]-1-oxo-isoindolin-2-yl]piperidine-2,6-dione]	< 10 nM	< 20 nM	1 to 10 nM	–
CCc1c(F)ccc2cc(O)cc(-c3ncc4c(N5CCC[C@@](C)(O)C5)nc(OCC5(CN6CCN(C7CC8(C7)CN(c7ccc9c(c7)CN(C7CCC(=O)NC7=O)C9=O)C8)CC6)CC5)nc4c3F)c12 (stereo partly drawn) [Compound 161, 3-(5-(6-(4-((1-(((7-(8-ethyl-7-fluoro-3-hydroxynaphthalen-1-yl)-8-fluoro-4-((R)-3-hydroxy-3-methylpiperidin-1-yl)pyrido[4,3-d]pyrimidin-2-yl)oxy)methyl)cyclopropyl)methyl)piperazin-1-yl)-2-azaspiro[3.3]heptan-2-yl)-1-oxoisoindolin-2-yl)piperidine-2,6-dione]	< 10 nM	20 to 200 nM	< 1 nM	–
CCc1cccc2cc(O)cc(-c3ncc4c(N5CCCOCC5)nc(OCC5(CN6CCC7(CC6)CC(CN6CCN(c8ccc9c(c8)CN([C@H]8CCC(=O)NC8=O)C9=O)CC6)C7)CC5)nc4c3F)c12 [Compound 109, (S)-3-(5-(4-((7-((1-(((7-(8-ethyl-3-hydroxynaphthalen-1-yl)-8-fluoro-4-(1,4-oxazepan-4-yl)pyrido[4,3-d]pyrimidin-2-yl)oxy)methyl)cyclopropyl)methyl)-7-azaspiro[3.5]nonan-2-yl)methyl)piperazin-1-yl)-1-oxoisoindolin-2-yl)piperidine-2,6-dione]	> 100 nM	> 200 nM	> 100 nM	–
CCc1c(F)ccc2cc(O)cc(-c3ncc4c(N5CCC[C@@](C)(O)C5)nc(OCC5(CN6CC(CN7CCC(N8CCN(c9ccc%10c(c9)CN([C@H]9CCC(=O)NC9=O)C%10=O)CC8)CC7)C6)CC5)nc4c3F)c12 [Compound 149, (S)-3-(5-(4-(1-((1-((1-(((7-(8-ethyl-7-fluoro-3-hydroxynaphthalen-1-yl)-8-fluoro-4-((R)-3-hydroxy-3-methylpiperidin-1-yl)pyrido[4,3-d]pyrimidin-2-yl)oxy)methyl)cyclopropyl)methyl)azetidin-3-yl)methyl)piperidin-4-yl)piperazin-1-yl)-1-oxoisoindolin-2-yl)piperidine-2,6-dione]	10 to 100 nM	20 to 200 nM	> 100 nM	–

Now from value to compound, other results behind:

GI50 ([1]; SW620 cells, 6 days)	IC50 [2]	DC50 [3]	SMILES	GI50 [1]
> 100 nM	> 200 nM	> 100 nM	CCc1cccc2cc(O)cc(-c3ncc4c(N5CCCOCC5)nc(OCC5(CN6CCC(CN7CCN(c8ccc9c(c8)CN([C@H]8CCC(=O)NC8=O)C9=O)CC7)CC6)CC5)nc4c3F)c12 [Compound 110, (S)-3-(5-(4-((1-((1-(((7-(8-ethyl-3-hydroxynaphthalen-1-yl)-8-fluoro-4-(1,4-oxazepan-4-yl)pyrido[4,3-d]pyrimidin-2-yl)oxy)methyl)cyclopropyl)methyl)piperidin-4-yl)methyl)piperazin-1-yl)-1-oxoisoindolin-2-yl)piperidine-2,6-dione]	–
< 10 nM	20 to 200 nM	1 to 10 nM	C[C@@]1(O)CCCN(c2nc(OCC3(CN4CCC5(CC4)CC(N4CCN(c6ccc7c(c6)CN([C@H]6CCC(=O)NC6=O)C7=O)CC4)C5)CC3)nc3c(F)c(-c4cc(O)cc5ccc(F)c(F)c45)ncc23)C1 [Compound 170, (S)-3-(5-(4-(7-((1-(((7-(7,8-difluoro-3-hydroxynaphthalen-1-yl)-8-fluoro-4-((R)-3-hydroxy-3-methylpiperidin-1-yl)pyrido[4,3-d]pyrimidin-2-yl)oxy)methyl)cyclopropyl)methyl)-7-azaspiro[3.5]nonan-2-yl)piperazin-1-yl)-1-oxoisoindolin-2-yl)piperidine-2,6-dione]	–
< 10 nM	20 to 200 nM	< 1 nM	CCc1cccc2cc(O)cc(-c3ncc4c(N5CCC[C@@](C)(O)C5)nc(OCC5(CN6CCC7(CC6)CC(N6CCN(c8ccc9c(c8)CN([C@H]8CCC(=O)NC8=O)C9=O)CC6)C7)CC5)nc4c3F)c12 [Compound 138, (3S)-3-[5-[4-[7-[[1-[[7-(8-ethyl-3-hydroxy-1-naphthyl)-8-fluoro-4-[(3R)-3-hydroxy-3-methyl-1-piperidyl]pyrido[4,3-d]pyrimidin-2-yl]oxymethyl]cyclopropyl]methyl]-7-azaspiro[3.5]nonan-2-yl]piperazin-1-yl]-1-oxo-isoindolin-2-yl]piperidine-2,6-dione]	–
< 10 nM	20 to 200 nM	1 to 10 nM	CCc1c(F)ccc2cc(O)cc(-c3ncc4c(N5CCOCC6(CCO6)C5)nc(OCC5(CN6CCC7(CC6)CC(CN6CCN(c8ccc9c(c8)CN([C@H]8CCC(=O)NC8=O)C9=O)CC6)C7)CC5)nc4c3F)c12 (stereo partly drawn) [Compound 124, (3S)-3-(5-(4-((7-((1-(((7-(8-ethyl-7-fluoro-3-hydroxynaphthalen-1-yl)-8-fluoro-4-(1,6-dioxa-9-azaspiro[3.6]decan-9-yl)pyrido[4,3-d]pyrimidin-2-yl)oxy)methyl)cyclopropyl)methyl)-7-azaspiro[3.5]nonan-2-yl)methyl)piperazin-1-yl)-1-oxoisoindolin-2-yl)piperidine-2,6-dione]	–
< 10 nM	< 20 nM	< 1 nM	CCc1c(F)ccc2cc(O)cc(-c3ncc4c(N5CCC[C@@](C)(O)C5)nc(OCC5(CN6CCC(N7CC(N8CCN(c9ccc%10c(c9)CN([C@H]9CCC(=O)NC9=O)C%10=O)CC8)C7)CC6)CC5)nc4c3F)c12 [Compound 146, (S)-3-(5-(4-(1-(1-((1-(((7-(8-ethyl-7-fluoro-3-hydroxynaphthalen-1-yl)-8-fluoro-4-((R)-3-hydroxy-3-methylpiperidin-1-yl)pyrido[4,3-d]pyrimidin-2-yl)oxy)methyl)cyclopropyl)methyl)piperidin-4-yl)azetidin-3-yl)piperazin-1-yl)-1-oxoisoindolin-2-yl)piperidine-2,6-dione]	–
< 10 nM	20 to 200 nM	< 1 nM	CCc1cccc2cc(O)cc(-c3ncc4c(N5CCC[C@@](C)(O)C5)nc(OCC5(CN6CCC(OC7CCN(c8ccc9c(c8)CN(C8CCC(=O)NC8=O)C9=O)CC7)CC6)CC5)nc4c3F)c12 (stereo partly drawn) [Compound 24, 3-(5-(4-((1-((1-(((7-(8-ethyl-3-hydroxynaphthalen-1-yl)-8-fluoro-4-((R)-3-hydroxy-3-methylpiperidin-1-yl)pyrido[4,3-d]pyrimidin-2-yl)oxy)methyl)cyclopropyl)methyl)piperidin-4-yl)oxy)piperidin-1-yl)-1-oxoisoindolin-2-yl)piperidine-2,6-dione]	–
